Measured values from US9944618B2, “Inhibiting neurotransmitter reuptake” (Mayo Foundation for Medical Education and Research, priority 2013, dated 2018).

Each molecule was assayed against human norepinephrine transporter (Homo sapiens (Human), UniProt P23975) (assay: Human NET (norepinephrine transporter) uptake assay). Conditions: comparison in words, used to assign configuration.
Type: cell-based
Experimental: This protocol was designed to measure inhibition of uptake by the human norepinephrine transporter. […] The Assay Buffer (AB) was 1×HBSS and 0.02 M HEPES.
The HEK293F cells were transfected with the human norepinephrine transporter and frozen in 1 mL aliquots at about 1E+07 cells/mL. On the day of the experiment, the cells were removed from −80° C. or liquid nitrogen and thawed in a room temperature water bath. The cells were dilute to about 1-2E+06 with Freestyle medium. A 1 mL sample (1:2 dilution) was prepared, and the cells were counted. The cells were spun at 1100 rpm for 5 minutes, and the medium was aspirated off. The cells were resuspend in medium at 1.5E+06 cells/mL for about 60,000 cells per well. 40 μL of cells were dispensed per well in the Biocoat plates. The plates were spun at 1100 rpm for 1 minute to improve homogeneity of the cell layer and were incubated at 37° C. for a minimum of 3 hours.
12 μL of test compound (10 mM) in DMSO was added to the wells, and nomifensine was used as a control. […] The neurotransmitter transporter dye was prepared in AB prior to use.
Due to the proprietary nature of the dye formulation, all dye concentrations were expressed as a percentage of the vendor-recommended dye reconstitution. Thus, the above calculations were valid when both [dye] and Km were expressed in the same units (%). Compounds were tested in triplicate (n=3).

human norepinephrine transporter, sequence (P23975 whole entry): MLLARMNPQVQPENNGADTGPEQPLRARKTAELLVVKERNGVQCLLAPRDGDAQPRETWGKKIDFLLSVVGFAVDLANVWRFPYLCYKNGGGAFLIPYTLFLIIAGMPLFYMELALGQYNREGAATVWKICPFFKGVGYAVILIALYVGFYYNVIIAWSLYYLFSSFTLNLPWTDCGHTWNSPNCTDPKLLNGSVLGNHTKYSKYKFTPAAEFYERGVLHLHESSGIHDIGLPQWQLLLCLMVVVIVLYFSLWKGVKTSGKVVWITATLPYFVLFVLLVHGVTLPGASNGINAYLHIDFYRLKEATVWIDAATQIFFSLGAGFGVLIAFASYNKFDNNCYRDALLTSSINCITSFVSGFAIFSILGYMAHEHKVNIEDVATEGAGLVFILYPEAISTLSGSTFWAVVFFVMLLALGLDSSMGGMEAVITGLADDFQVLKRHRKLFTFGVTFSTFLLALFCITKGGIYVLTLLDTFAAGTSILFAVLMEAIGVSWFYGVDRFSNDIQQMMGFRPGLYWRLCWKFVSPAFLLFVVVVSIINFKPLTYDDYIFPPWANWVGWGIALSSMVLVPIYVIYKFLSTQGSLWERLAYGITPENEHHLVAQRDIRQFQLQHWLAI

| Structure (SMILES) | potency at hNET relative to the other enantiomer or epimer |
| --- | --- |
| CNC[C@H](c1ccc2ccccc2c1)[C@@H](O)c1cc(F)cc(F)c1 [compound 141] | more potent |
| CNCC(c1ccc2ccccc2c1)[C@@H](O)c1ccc(Cl)nc1 (stereo partly drawn) [compound 169] | lower potency |
| CNC[C@H](c1ccc2ccccc2c1)[C@H](O)c1ccccc1C [compound 28] | more potent |
| CNC[C@@H](c1ccc(Br)c(Cl)c1)[C@@H](O)c1ccccc1 [compound 110] | lower potency |
| CNC[C@@H](c1ccc(Cl)c(Cl)c1)[C@@H](O)c1cccc(SC)c1 [compound 120] | lower inhibitory activity |
| CNCC(c1ccc(Br)c(Cl)c1)[C@H](O)c1ccccc1 (stereo partly drawn) [compound 16] | more potent |
| CNC[C@@H](Cc1ccc(C)s1)c1ccc2ccccc2c1 [compound 44] | higher potency |
| CNC[C@H](c1ccc(Cl)c(Cl)c1)[C@H](O)c1ccccc1I [compound 164] | greater potency |
| CNC[C@@H](c1ccc(Cl)c(Cl)c1)[C@@H](O)c1ccsc1 [compound 106] | lower potency |
| CNC[C@@H](c1ccc2ccccc2c1)[C@H](O)c1cc(F)cc(F)c1 [compound 142] | less potent |
| CNC[C@H](c1ccc(Cl)c(Cl)c1)[C@@H](O)c1cccc(Br)c1 [compound 161] | more potent |
| CNC[C@H](c1ccc(Cl)c(Cl)c1)[C@H](O)c1ccccc1OC [compound 160] | greater hNET potency |
| CNCC(Cc1ccccc1C)c1ccc2ccccc2c1 (stereo not drawn) [compound 39] | more potent |
| CNC[C@@H](c1ccc2ccccc2c1)[C@@H](O)c1ccccc1F [compound 78] | less potent |
| CNC[C@H](c1ccc(Cl)c(Cl)c1)[C@@H](O)c1cccc(SC)c1 [compound 163] | more potent |
| CNC[C@H](c1ccc2ccccc2c1)[C@@H](O)c1ccccc1F [compound 60] | more potent |
| CNC[C@H](c1ccc(Cl)c(Cl)c1)[C@H](O)c1cccc(N(C)C)c1 (single isomer, unassigned) [compound 168] | similar |
| CCc1cccc([C@@H](O)[C@H](CNC)c2ccc(Cl)c(Cl)c2)c1 [compound 159] | more potent |
| CNCC(Cc1ccccc1OC)c1ccc2ccccc2c1 (stereo not drawn) [compound 57] | more potent |
| CNCC(CCc1ccccc1)[C@H](O)c1ccccc1 (stereo partly drawn) [compound 66] | less potent |
| CNC[C@H](c1ccc(Cl)c(Cl)c1)[C@H](O)c1ccccc1 [compound 10] | more potent |
| CNC[C@@H](c1ccc2ccccc2c1)[C@H](O)c1ccccc1F [compound 96] | less potent |
| CNC[C@@H](c1ccc2ccccc2c1)[C@@H](O)c1cccnc1 [compound 49] | more potent |
| C[C@](CN)(Cc1cccnc1)c1ccc2ccccc2c1 [compound 42] | more potent |
| CNCC(C[C@H](O)c1ccccc1)c1ccc2ccccc2c1 (stereo partly drawn) [compound 85] | more potent |

| Structure (SMILES) | potency at hNET relative to the other enantiomer or epimer |
| --- | --- |
| CNC[C@H](c1ccc(Cl)c(Cl)c1)[C@@H](O)c1cccc(I)c1 [compound 165] | higher potency |
| CNCC(Cc1ccccc1CO)c1ccc2ccccc2c1 (stereo not drawn) [compound 90] | less potent |
| CNC[C@@H](c1ccc2ccccc2c1)[C@@H](O)c1cccnc1 [compound 103] | less potent |
| CNC[C@@H](c1ccc(Cl)c(Cl)c1)[C@@H](O)c1cccc(SC)c1 [compound 154] | lower potency |
| CNC[C@@H](c1ccc2ccccc2c1)[C@H](O)c1ccccn1 [compound 99] | lower inhibitory activity |
| NCC(c1ccc2ccccc2c1)C(O)c1ccc(F)cc1F (stereo not drawn) [compound 107] | higher potency |
| CNC[C@@H](c1ccc(Cl)c(Cl)c1)[C@@H](O)c1cccnc1OC [compound 171] | less potent |
| CNC[C@H](c1ccc(Cl)c(Cl)c1)[C@H](O)c1cccc(I)c1 [compound 151] | higher potency |
| CNCC(CCc1ccccc1)[C@@H](O)c1ccccc1 (stereo partly drawn) [compound 27] | more potent |
| CNC[C@@H](c1ccc2ccccc2c1)[C@@H](O)c1cncc(OC)c1 [compound 122] | lower inhibitory activity |
| CNC[C@H](c1ccc2ccccc2c1)[C@H](O)c1ccccc1F [compound 15] | more potent |
| CNC[C@H](c1ccc(OC)c(C)c1)[C@H](O)c1cccnc1 [compound 55] | more potent |
| CNC[C@H](c1ccc2ccccc2c1)[C@H](O)c1cncc(OC)c1 [compound 92] | more potent |
| CNC[C@H](c1ccc(Cl)c(Cl)c1)[C@H](O)c1cncc(OC)c1 [compound 166] | more potent |
| NC[C@@H](c1ccc2ccccc2c1)C(O)c1ccncc1Cl (stereo partly drawn) [compound 118] | lower potency |
| CNC[C@H](c1ccc(Cl)c(Cl)c1)[C@@H](O)c1cccc(NS(=O)(=O)C(F)(F)F)c1 [compound 127] | higher inhibitory activity |
| CNC[C@@H](c1ccc(Cl)c(Cl)c1)[C@@H](OC)c1cccc(NS(=O)(=O)C(F)(F)F)c1 [compound 172] | less potent |
| CNC[C@H](c1ccc(Cl)c(Cl)c1)[C@H](O)c1cccc(Br)c1 [compound 76] | more potent |
| CNC[C@H](c1ccc(Cl)c(Cl)c1)[C@H](O)c1cccc(OC)n1 [compound 167] | higher potency |
| CNCC(Cc1ccccc1CO)c1ccc2ccccc2c1 (stereo not drawn) [compound 2] | more potent |
| CNC[C@H](c1ccc(Cl)c(Cl)c1)[C@@H](O)c1ccccc1-c1cccs1 [compound 100] | higher inhibitory activity |
| CNC[C@H](c1ccc2ccccc2c1)[C@H](O)c1ccc2c(c1)OCCO2 [compound 143] | higher potency |
| CNC[C@@H](c1ccc(Cl)c(Cl)c1)[C@@H](O)c1cccc(Br)c1 [compound 162] | less potent |
| CNC[C@H](c1ccc(Cl)c(Cl)c1)[C@@H](O)c1cccc(NC(C)=O)c1 [compound 94] | more potent |
| CNC[C@H](c1ccc2ccccc2c1)[C@H](O)c1ccc(Cl)nc1 [compound 26] | higher inhibitory activity |

Same assay, conditions: stated in synthesis example

| Structure (SMILES) | potency at hNET [nM] |
| --- | --- |
| CCc1ccccc1[C@@H](O)[C@H](CNC)c1ccc(Cl)c(Cl)c1 [compound 158] | 6 |
